Laboratory results as given in US8951999B2, “Compounds” (Orexo AB, priority 2009, dated 2015).

Molecular target: T1, recombinant human mPGES-1 (Homo sapiens, UniProt O14684)
T1 sequence (O14684 1-152): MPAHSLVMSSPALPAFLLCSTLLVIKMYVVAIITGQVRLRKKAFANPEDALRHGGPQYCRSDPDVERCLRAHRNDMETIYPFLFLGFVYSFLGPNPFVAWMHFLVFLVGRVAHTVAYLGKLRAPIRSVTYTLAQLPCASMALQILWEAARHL
Test: Assay B: mPGES-1 enzyme assay (modified)
Type: biochemical
Conditions: biological assay B (all other compounds); PGH2 final conc. 2 μM, HTRF; read-out: mPGES-1 inhibitory effect IC50
Procedure: Assay B: mPGES-1 Enzyme Assay (Modified)
The aim of this assay is to determine the affinity of a test compound for the mPGES-1 enzyme.
47 μl of recombinant human mPGES-1 (˜0.5 μg protein/well) containing microsomal suspension in a buffer containing GSH, (2.5 mmol/L L-Glutathione reduced, dissolved in 0.1 mol/L Phosphat Buffer pH 7.4) is dispensed in a 384-well plate and thereafter 1 μl of the test compound(s) is/are added and incubated for 25 minutes at room temperature. The enzyme reaction is started by the addition of 2 ul PGH2 (final conc. 2 μM) dissolved in water-free Diglyme. After 60 seconds the reaction is terminated by addition of a stop solution containing FeCl2 (10 μL 0.074 mol/l FeCl2). The samples are diluted between 1:25 in PBS (Phosphate Buffered Saline). 10 μl of the diluted samples are transferred to 384-well low volume plate. In order to quantify the amount of PGE2 that has been formed, a homogenous time resolved fluorescent (HTRF) detecting of PGE2 has been performed using a commercially available kit from Cisbio according to the manufactures recommendation. This HTRF-based assay has been described in detail (see: Goedken et al., J Biomol Screen, 2008, 13(7), 619-625). Briefly, the diluted samples are mixed with […] PGE2-d2 conjugate and 5 μl anti-PGE2 cryptate conjugate. After an incubation period of the plates over night, the fluorescence is measured by the use of an appropriate microplate reader.
The fluorescence of Europium cryptate (maxex=307 nm, maxem=620 nm) and d2-PGE2 (maxex=620 nm, maxem=665 nm) are measured.
The extent of the specific HTRF is measured as a ratio of the emission intensity at 665 nm vs. that at 620 nm at an excitation pulse of 320 nm. The quantification plate contains also wells with different concentrations of PGE2 as calibration curve for the calculation of the PGE2 concentrations from the HTRF ratio values.
From all mPGES enzyme assay the background is subtracted and the IC50 is calculated over a nonlinear regression with conventional software.

Compound	IC50 [nM]
CC(C)(C(=O)NCc1ccc(Cl)c(C(=O)Nc2ccc(OCC(F)F)c(C(=O)NC3CCSCC3)c2)c1)C(F)(F)F [Example 90]	9
CC(C)(C(=O)NCc1ccc(Cl)c(C(=O)Nc2ccc(OCC(F)F)c(C(=O)NCc3ccc(F)cc3C(F)(F)F)c2)c1)C(F)(F)F [Example 89]	4
CC(C)(C(=O)NCc1ccc(Cl)c(C(=O)Nc2ccc(N3CCC(F)CC3)c(C(=O)Nc3ccc(F)c(Cl)c3)c2)c1F)C(F)(F)F [Example 57, N-[4-(4-Fluoro-piperidin-1-yl)-3-(3-chloro-4-fluorophenyl)aminocarbonyl-phenyl]-2-fluoro-6-chloro-3-[(2,2,2-trifluoro-1,1-dimethyl-ethyl)carbonylamino]methyl-benzamide]	2
CC(C)(C(=O)NCc1ccc(Cl)c(C(=O)Nc2ccc(OCC(F)F)c(C(=O)Nc3ccc(Br)cc3)c2)c1Cl)C(F)(F)F [Example 47, N-[4-(2,2-Difluoroethyl)oxy-3-(4-bromophenyl)aminocarbonyl-phenyl]-2,6-dichloro-3-(2,2,2-trifluoro-1,1-dimethyl-ethyl)carbonylaminomethyl-benzamide]	6
CC(C)(C(=O)NCc1ccc(Cl)c(C(=O)Nc2ccc(OCC(F)F)c(C(=O)Nc3nc4ccc(Cl)cc4s3)c2)c1)C(F)(F)F [Example 93]	7
CC(C)(C(=O)NCc1ccc(Cl)c(C(=O)Nc2ccc(OCC(F)F)c(C(=O)Nc3ccnc4ccccc34)c2)c1)C(F)(F)F [Example 131]	9
CC(C)(C(=O)NCc1ccc(Cl)c(C(=O)Nc2ccc(OCC(F)F)c(C(=O)NCCCC(F)(F)F)c2)c1)C(F)(F)F [Example 121]	11
CC(C)(C(=O)NCc1ccc(Cl)c(C(=O)Nc2ccc(OCC(F)F)c(C(=O)Nc3c(F)ccc(F)c3F)c2)c1F)C(F)(F)F [Example 79]	5
CC(C)(C(=O)NCc1ccc(Cl)c(C(=O)Nc2ccc(OC3CCOC3)c(C(=O)Nc3ccc(Br)cc3)c2)c1)C(F)(F)F (centres unmarked) [Example 69]	4
CC(C)(C(=O)NCc1ccc(Cl)c(C(=O)Nc2ccc(OCC(F)F)c(C(=O)Nc3ccc(Br)c(Cl)c3)c2)c1)C(F)(F)F [Example 105]	5
CC(C)(C(=O)NCc1ccc(Cl)c(C(=O)Nc2ccc(OCC(F)F)c(C(=O)Nc3ccc(Br)cc3)c2)c1)C(F)(F)F [Example 81]	2
CC(C)(C(=O)NCc1ccc(Cl)c(C(=O)Nc2ccc(OCC(F)F)c(C(=O)Nc3ccc(F)c(Cl)c3F)c2)c1)C(F)(F)F [Example 134]	7
CC(C)(C(=O)NCc1ccc(Cl)c(C(=O)Nc2ccc(OCC(F)F)c(C(=O)NCC3CCCCC3)c2)c1)C(F)(F)F [Example 129]	5
CC(C)(C(=O)NCc1ccc(Cl)c(C(=O)Nc2ccc(OCC(F)F)c(C(=O)NC3CCc4ccccc4C3)c2)c1)C(F)(F)F (centres unmarked) [Example 85]	6
CC1CCC(NC(=O)c2cc(NC(=O)c3cc(CNC(=O)C(C)(C)C(F)(F)F)ccc3Cl)ccc2OCC(F)F)CC1 (centres unmarked) [Example 96]	5
CC(C)(C(=O)NCc1ccc(Cl)c(C(=O)Nc2ccc(OCC(F)F)c(C(=O)NCc3cccc(C(F)(F)F)c3)c2)c1)C(F)(F)F [Example 101]	9
CC(C)(C)C(=O)NCc1ccc(C(F)(F)F)c(C(=O)Nc2ccc(OCC(F)F)c(C(=O)Nc3ccc(Br)cc3)c2)c1 [Example 42, N-[4-(2,2-Difluoroethyl)oxy-3-(4-bromophenyl)aminocarbonyl-phenyl]-2-trifluormethyl-5-(tert-butylcarbonylamino)methyl-benzamide]	3
COCCOc1ccc(NC(=O)c2cc(CNC(=O)C(C)C(F)(F)F)ccc2Cl)cc1C(=O)Nc1ccc(Br)cc1 (centres unmarked) [Example 65, N-[4-(2-Methoxy)ethoxy-3-(4-bromphenyl)aminocarbonyl-phenyl]-2-chloro-5-(2,2,2-trifluoro-1-methyl-ethyl)carbonylaminomethyl-benzamide]	4
CC(C)(C)C(=O)NCc1ccc(Cl)c(C(=O)Nc2ccc(N3CCC(C(F)(F)F)CC3)c(C(=O)NCC3CC3)c2)c1 [Example 63]	5
Cc1ccc(Cl)cc1NC(=O)c1cc(NC(=O)c2cc(CNC(=O)C(C)(C)C(F)(F)F)ccc2Cl)ccc1OCC(F)F [Example 86]	5
CC(C)(C(=O)NCc1ccc(Cl)c(C(=O)Nc2ccc(OCC(F)F)c(C(=O)Nc3ccc(F)c(Cl)c3)c2)c1F)C(F)(F)F [Example 77, N-[4-(2,2-Difluoroethyl)oxy-3-(4-fluoro-3-chloro-phenyl)aminocarbonyl-phenyl]-6-chloro-2-fluoro-3-[(2,2,2-trifluoro-1,1-dimethyl-ethyl)carbonylamino]methyl-benzamide]	2
CC(C)(C(=O)NCc1ccc(Cl)c(C(=O)Nc2ccc(OCC(F)F)c(C(=O)Nc3ccc(Cl)c(F)c3)c2)c1)C(F)(F)F [Example 108]	5
CC(C)(C(=O)NCc1ccc(Cl)c(C(=O)Nc2ccc(OCC(F)F)c(C(=O)Nc3ccc(OC(F)(F)F)c(Cl)c3)c2)c1)C(F)(F)F [Example 130]	4
CC(C)(C(=O)NCc1ccc(Cl)c(C(=O)Nc2ccc(OCC(F)F)c(C(=O)NCc3ccccc3C(F)(F)F)c2)c1)C(F)(F)F [Example 84]	6
O=C(Nc1ccc(OCC(F)F)c(C(=O)Nc2ccc(Br)cc2)c1)c1cc(CNC(=O)C(F)(F)F)ccc1Cl [Example 80]	10
CC(C)(C(=O)NCc1ccc(Cl)c(C(=O)Nc2ccc(OCC(F)F)c(C(=O)Nc3cccc(F)c3)c2)c1)C(F)(F)F [Example 119]	5
CC(C)(C(=O)NCc1ccc(Cl)c(C(=O)Nc2ccc(OCC(F)F)c(C(=O)NCC3(O)CC3)c2)c1)C(F)(F)F [Example 102]	> 100
CC(C)(C(=O)NCc1ccc(Cl)c(C(=O)Nc2ccc(OCC(F)F)c(C(=O)Nc3ccc(Br)c(F)c3)c2)c1)C(F)(F)F [Example 133]	6
CC1(C)CC1CNC(=O)c1cc(NC(=O)c2cc(CNC(=O)C(C)(C)C(F)(F)F)ccc2Cl)ccc1OCC(F)F (centres unmarked) [Example 107]	5
Cc1c(CNC(=O)C(C)(C)C)ccc(Cl)c1C(=O)Nc1ccc(OCC(F)F)c(C(=O)Nc2ccc(Br)cc2)c1 [Example 51, N-[4-(2,2-Difluoroethyl)oxy-3-(4-bromophenyl)aminocarbonyl-phenyl]-6-chloro-2-methyl-3-(tert-butylcarbonylamino)methyl-benzamide]	5

The remaining lines, values ahead:

IC50 [nM]	Compound
5	Cc1ccc(Cl)cc1NC(=O)c1cc(NC(=O)c2c(Cl)ccc(CNC(=O)C(C)(C)C(F)(F)F)c2Cl)ccc1OCC(F)F [Example 153]
8	NC(C(=O)NCc1ccc(Cl)c(C(=O)Nc2ccc(OCC(F)F)c(C(=O)Nc3ccc(Br)cc3)c2)c1)C(F)(F)F (centres unmarked) [Example 174]
50	CNC(C)(C)C(=O)NCc1ccc(Cl)c(C(=O)Nc2ccc(OCC(F)F)c(C(=O)Nc3ccc(Br)cc3)c2)c1 [Example 176]
9	CC(C)C(O)C(=O)NCc1ccc(Cl)c(C(=O)Nc2ccc(OCC(F)F)c(C(=O)Nc3ccc(Br)cc3)c2)c1 (centres unmarked) [Example 175]
48	N#CC1(C(=O)NCc2ccc(Cl)c(C(=O)Nc3ccc(OCC(F)F)c(C(=O)Nc4ccc(Br)cc4)c3)c2)CC1 [Example 173]
14	CC(C)(C(=O)NCc1ccc(Cl)c(C(=O)Nc2ccc(OCC(F)F)c(C(=O)NCCC(F)(F)F)c2)c1Cl)C(F)(F)F [Example 146]
8	O=C(Nc1ccc(OCC(F)F)c(C(=O)Nc2ccc(Br)cc2)c1)c1cc(CNC(=O)C2(O)CC2)ccc1Cl [Example 162]
2	CC(C)(C)C(=O)NCc1ccc(Cl)c(C(=O)Nc2ccc(N3CCCC(C(F)(F)F)C3)c(C(=O)Nc3ccc(Br)cc3)c2)c1Cl (centres unmarked) [Example 180]
7	CC(C)(C)C(=O)NCc1ccc(Cl)c(C(=O)Nc2cnc(OCC(F)F)c(C(=O)N[C@H]3CC[C@H](C(F)(F)F)CC3)c2)c1Cl [Example 178]
4	CC(C)(C(=O)NCc1ccc(Cl)c(C(=O)Nc2ccc(OCC(F)F)c(C(=O)NC3CCC(C(F)F)CC3)c2)c1Cl)C(F)(F)F (centres unmarked) [Example 149]
5	CC(C)(C(=O)NCc1ccc(Cl)c(C(=O)Nc2ccc(OCC(F)F)c(C(=O)NCC3CCC3)c2)c1)C(F)(F)F [Example 141]
8	CC(C)CNC(=O)c1cc(NC(=O)c2cc(CNC(=O)C(C)(C)C(F)(F)F)ccc2Cl)ccc1OCC(F)F [Example 140]
22	CC(C)(C(=O)NCc1ccc(Cl)c(C(=O)Nc2ccc(OCC(F)F)c(C(=O)NC3CCC(F)(F)CC3)c2)c1Cl)C(F)(F)F [Example 157]
6	CC(C)(C(=O)NCc1ccc(Cl)c(C(=O)Nc2ccc(OCC(F)F)c(C(=O)NC3CCC(C(F)F)CC3)c2)c1)C(F)(F)F (centres unmarked) [Example 142]
